Results as given in US6525001B1, “Substituted pyrimidine and pyridine herbicides” (Mid-American Commercialization Corporation, priority 1997, dated 2003).

Experiments:
Assay type in all cases: in vivo
Set-up in all cases: key: 0 is no effect; 10 is complete control
[1] = tested on: duck salad (Heteranthera limosa); experiment: Test B flood test
Procedure, shortened: (§1)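 Each value is a visual injury score relative to controls, with 10 meaning complete control and 0 no effect. Evaluation took place twelve to sixteen days after the 2-leaf-stage plants were treated and kept in the greenhouse.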

rice (Oryza sativa) = experiment: Test B flood test
Procedure, shortened: as §1

[2] = tested on: bamyardgrass (Echinochloa crus-galli); experiment: Test B flood test
Procedure, shortened: as §1

[3] = tested on: smallflower flatsedge (Cyperus difformis); experiment: Test B flood test
Procedure, shortened: as §1

[4] = tested on: cocklebur (Xanthium strumarium); experiment: Test B pre-/postemergence; settings: for Cocklebur plant response rating: Preemergence
Procedure, shortened: (§2)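 Response scores run from 0, meaning no effect, to 10, meaning complete control, assigned by eye relative to controls twelve to sixteen days after spraying. Treatment was both preemergence on planted seed and postemergence on plants at the 1- to 4-leaf stage.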

wild oat (Avena fatua) = experiment: Test B pre-/postemergence
Procedure, shortened: as §2

[5] = tested on: crabgrass (Digitaria sanguinalis); experiment: Test B pre-/postemergence; settings: for Crabgrass plant response rating: Preemergence
Procedure, shortened: as §2

rape (Brassica napus) = experiment: Test B pre-/postemergence
Procedure, shortened: as §2

corn (Zea mays) = experiment: Test B pre-/postemergence; settings: for Corn plant response rating: Preemergence
Procedure, shortened: as §2

[6] = tested on: momingglory (Ipomoea hederacea); experiment: Test B pre-/postemergence
Procedure, shortened: as §2

[7] = tested on: pigweed (Amaranthus retroflexus); experiment: Test B pre-/postemergence
Procedure, shortened: as §2

soybean (Glycine max) = experiment: Test B pre-/postemergence
Procedure, shortened: as §2

[8] = tested on: purple nutsedge (Cyperus rotundus); experiment: Test B pre-/postemergence
Procedure, shortened: as §2

[9] = tested on: velvetleaf (Abutilon theophrasti); experiment: Test B pre-/postemergence
Procedure, shortened: as §2

[10] = tested on: blackgrass (Alopecurus myosuroides); experiment: Test B pre-/postemergence; settings: for Blackgrass plant response rating: Preemergence
Procedure, shortened: as §2

[11] = tested on: broadleaf signalgrass (Brachiaria decumbens); experiment: Test B pre-/postemergence; settings: for B. signalgrass plant response rating: Preemergence
Procedure, shortened: as §2

[12] = tested on: sugar beet (Beta vulgaris); experiment: Test B pre-/postemergence
Procedure, shortened: as §2

[13] = tested on: giant foxtail (Setaria faberii); experiment: Test B pre-/postemergence
Procedure, shortened: as §2

[14] = tested on: bedstraw (Galium aparine); experiment: Test B pre-/postemergence; settings: for Bedstraw plant response rating: Preemergence
Procedure, shortened: as §2

[15] = tested on: wheat (Triticum aestivum); experiment: Test B pre-/postemergence
Procedure, shortened: as §2

[16] = Rate 62 g/ha, Postemergence (flood test)
[17] = Rate 125 g/ha, Postemergence, flood test
[18] = Rate 250 g/ha, Postemergence (flood test species)
[19] = Rate 125 g/ha, Postemergence section (flood test species)
[20] = Rate 250 g/ha, Postemergence (so in the source)

Cc1cnc(-c2ccc(F)cc2F)nc1Cc1cccc(C#N)c1 [Compound 34]
6: Plant response rating, Redroot pigweed ([7]; Rate 250 g/ha, Postemergence)
3: Plant response rating, S. Flatsedge [3, 18] | Rape plant response rating (rape (Brassica napus); Rate 125 g/ha, Postemergence) | Plant response rating, Rape (rape (Brassica napus); Rate 250 g/ha, Postemergence) | Redroot pigweed plant response rating ([7]; Rate 125 g/ha, Postemergence) | Plant response rating, Bedstraw ([14]; Rate 125 g/ha, Postemergence)
0: Plant response rating, Ducksalad [1, 16] | Plant response rating, Ducksalad [1, 17] | Plant response rating, Ducksalad [1, 18] | Plant response rating, Barnyardgrass [2, 16] | Plant response rating, Barnyardgrass [2, 17] | Cocklebur plant response rating ([4]; Rate 62 g/ha) | Cocklebur plant response rating ([4]; Rate 125 g/ha) | Plant response rating, Cocklebur [4, 20] | Wild oats plant response rating (wild oat (Avena fatua); Rate 62 g/ha, Postemergence) | Wild oats plant response rating (wild oat (Avena fatua); Rate 62 g/ha, Preemergence) | Plant response rating, Wild oats (wild oat (Avena fatua); Rate 125 g/ha, Preemergence) | Plant response rating, Wild oats (wild oat (Avena fatua); [20]) | Plant response rating, Crabgrass ([5]; Rate 62 g/ha, Postemergence) | Crabgrass plant response rating ([5]; Rate 62 g/ha) | Crabgrass plant response rating ([5]; Rate 125 g/ha) | Rape plant response rating (rape (Brassica napus); Rate 62 g/ha, Preemergence) | Rape plant response rating (rape (Brassica napus); Rate 125 g/ha, Preemergence) | Plant response rating, Rape (rape (Brassica napus); [20]) | Corn plant response rating (corn (Zea mays); Rate 62 g/ha) | Corn plant response rating (corn (Zea mays); Rate 125 g/ha) | Plant response rating, Corn (corn (Zea mays); [20]) | Morningglory plant response rating ([6]; Rate 62 g/ha, Preemergence) | Morningglory plant response rating ([6]; Rate 125 g/ha, Preemergence) | Plant response rating, Morningglory [6, 20] | Redroot pigweed plant response rating ([7]; Rate 62 g/ha, Preemergence) | Redroot pigweed plant response rating ([7]; Rate 125 g/ha, Preemergence) | Soybean plant response rating (soybean (Glycine max); Rate 62 g/ha, Preemergence) | Plant response rating, Soybean (soybean (Glycine max); Rate 125 g/ha, Preemergence) | Plant response rating, Soybean (soybean (Glycine max); [20]) | Plant response rating, Nutsedge ([8]; Rate 62 g/ha, Postemergence) | Nutsedge plant response rating ([8]; Rate 62 g/ha, Preemergence) | Nutsedge plant response rating ([8]; Rate 125 g/ha, Postemergence) | Nutsedge plant response rating ([8]; Rate 125 g/ha, Preemergence) | Plant response rating, Nutsedge ([8]; Rate 250 g/ha, Postemergence) | Plant response rating, Nutsedge [8, 20] | Velvetleaf plant response rating ([9]; Rate 62 g/ha, Preemergence) | Plant response rating, Velvetleaf ([9]; Rate 125 g/ha, Preemergence) | Plant response rating, Velvetleaf [9, 20] | Plant response rating, Blackgrass ([10]; Rate 62 g/ha, Postemergence) | Blackgrass plant response rating ([10]; Rate 62 g/ha) | Blackgrass plant response rating ([10]; Rate 125 g/ha) | Plant response rating, Blackgrass [10, 20] | B. signalgrass plant response rating ([11]; Rate 62 g/ha) | B. signalgrass plant response rating ([11]; Rate 125 g/ha) | Sugarbeets plant response rating ([12]; Rate 62 g/ha, Preemergence) | Plant response rating, Sugarbeets ([12]; Rate 125 g/ha, Preemergence) | Plant response rating, Sugarbeets [12, 20] | Plant response rating, Giant foxtail ([13]; Rate 62 g/ha, Postemergence) | Giant foxtail plant response rating ([13]; Rate 62 g/ha, Preemergence) | Giant foxtail plant response rating ([13]; Rate 125 g/ha, Preemergence) | Bedstraw plant response rating ([14]; Rate 62 g/ha) | Bedstraw plant response rating ([14]; Rate 125 g/ha) | Plant response rating, Bedstraw [14, 20] | Wheat plant response rating ([15]; Rate 62 g/ha, Postemergence) | Wheat plant response rating ([15]; Rate 62 g/ha, Preemergence) | Plant response rating, Wheat ([15]; Rate 125 g/ha, Preemergence) | Plant response rating, Wheat [15, 20]
1: Plant response rating, Rice (rice (Oryza sativa); [16]) | Rice plant response rating (rice (Oryza sativa); [19]) | Plant response rating, Rice (rice (Oryza sativa); [18]) | Plant response rating, Barnyardgrass [2, 18] | Wild oats plant response rating (wild oat (Avena fatua); Rate 125 g/ha, Postemergence) | Plant response rating, Crabgrass ([5]; Rate 125 g/ha, Postemergence) | Plant response rating, Crabgrass ([5]; Rate 250 g/ha, Postemergence) | Plant response rating, Crabgrass [5, 20] | Plant response rating, Corn (corn (Zea mays); Rate 62 g/ha, Postemergence) | Plant response rating, Corn (corn (Zea mays); Rate 125 g/ha, Postemergence) | Plant response rating, Corn (corn (Zea mays); Rate 250 g/ha, Postemergence) | Plant response rating, Morningglory ([6]; Rate 62 g/ha, Postemergence) | Morningglory plant response rating ([6]; Rate 125 g/ha, Postemergence) | Plant response rating, Redroot pigweed ([7]; Rate 62 g/ha, Postemergence) | Plant response rating, Soybean (soybean (Glycine max); Rate 62 g/ha, Postemergence) | Plant response rating, Velvetleaf ([9]; Rate 62 g/ha, Postemergence) | Velvetleaf plant response rating ([9]; Rate 125 g/ha, Postemergence) | Plant response rating, Velvetleaf ([9]; Rate 250 g/ha, Postemergence) | Plant response rating, Blackgrass ([10]; Rate 125 g/ha, Postemergence) | Plant response rating, Blackgrass ([10]; Rate 250 g/ha, Postemergence) | Plant response rating, B. signalgrass ([11]; Rate 62 g/ha, Postemergence) | Plant response rating, B. signalgrass ([11]; Rate 125 g/ha, Postemergence) | Plant response rating, B. signalgrass ([11]; Rate 250 g/ha, Postemergence) | Plant response rating, B. signalgrass ([11]; Rate 250 g/ha, Postemergence as printed in head r139 (second section for compounds 26-50)) | Giant foxtail plant response rating ([13]; Rate 125 g/ha, Postemergence) | Plant response rating, Giant foxtail ([13]; Rate 250 g/ha, Postemergence) | Plant response rating, Giant foxtail [13, 20] | Wheat plant response rating ([15]; Rate 125 g/ha, Postemergence) | Plant response rating, Wheat ([15]; Rate 250 g/ha, Postemergence)
8: Plant response rating, Cocklebur ([4]; Rate 250 g/ha, Postemergence) | Plant response rating, Sugarbeets ([12]; Rate 62 g/ha, Postemergence) | Sugarbeets plant response rating ([12]; Rate 125 g/ha, Postemergence)
2: Plant response rating, S. Flatsedge [3, 16] | S. Flatsedge plant response rating [3, 19] | Plant response rating, Cocklebur ([4]; Rate 62 g/ha, Postemergence) | Plant response rating, Cocklebur ([4]; Rate 125 g/ha, Postemergence) | Plant response rating, Wild oats (wild oat (Avena fatua); Rate 250 g/ha, Postemergence) | Plant response rating, Rape (rape (Brassica napus); Rate 62 g/ha, Postemergence) | Plant response rating, Morningglory ([6]; Rate 250 g/ha, Postemergence) | Plant response rating, Redroot pigweed [7, 20] | Soybean plant response rating (soybean (Glycine max); Rate 125 g/ha, Postemergence) | Plant response rating, Soybean (soybean (Glycine max); Rate 250 g/ha, Postemergence) | Plant response rating, Bedstraw ([14]; Rate 62 g/ha, Postemergence)
9: Plant response rating, Sugarbeets ([12]; Rate 250 g/ha, Postemergence)
7: Plant response rating, Bedstraw ([14]; Rate 250 g/ha, Postemergence)
